Paper PMC12802961 (Journal of Antimicrobial Chemotherapy, 2025)

Columns and labels:
E. coli 52 = experiment: Checkerboard broth microdilution MIC of cefepime alone and with taniborbactam; assay type: cell-based, Escherichia coli
Text: (§1) Four previously well-characterized cefepime-resistant isolates, namely one ESBL-producing E. coli, one ESBL-producing K. pneumoniae and two P. aeruginosa (one VIM- and one AmpC constitutively -producing), were used.

[1] = Protein binding, equilibrium dialysis chamber, LC-MS/MS; assay type: in vitro ADME
Text: […]. […] […].
(§2) . […] Free drug concentrations were used in all calculations. […]

[2] = Single-dose plasma pharmacokinetics, s.c., infected neutropenic mice; conditions: cefepime; one-compartment model; serum/plasma, s.c., infected mice
Description: All animal procedures were carried out in the Animal Facility for Medical and Scientific Purposes of the University General Hospital Attikon (EL 25 BIO 014), Athens, Greece. […] Outbred female CD-1 mice, obtained by the Hellenic Pasteur Institute, Greece, and Charles River Laboratories Models and Services, Germany, were used at the age of 7–8 weeks, weighing 20–25 g. The animals were allowed to acclimatize for at least 5 days upon arrival and were housed under standard conditions with water and food supplied ad libitum. […] Infection was induced (Day 0) by intramuscular injection of 0.05 mL bacterial inoculum of approximately 10^5–10^6 cfu/thigh.
The dose was administered s.c. (0.1 mL) 2 h after infection (t = 0 h). Blood samples were collected in 1 mL K3EDTA tubes through orbital sinus bleeding under isoflurane anaesthesia. Animals were immediately euthanized through cervical dislocation and blood samples taken at timepoints 0, 0.08, 0.25, 0.5, 0.75, 1, 1.5, 2, 3, 4, 6, and 8 h after single dose injection. Blood samples were centrifuged immediately after collection in a pre-cooled centrifuge, and plasma was stored at −80°C. For each timepoint two animals were euthanized in order to have duplicates for each condition.
The Cmax values were calculated from raw data and the AUCs were calculated using the trapezoidal rule. […] Equations used in the program were the classical polyexponential equations Ci(t) = PolyExp(i, n, t), where i = number of the compartments, n = number of doses and t = time from last dose (http://www.boomer.org/c/p4/c19/c19.pdf). The %fT > Ct was then determined using a bisectional rootfinder for intersections between simulated curve and concentration, and calculating the difference between intersection values. Free drug concentrations were used in all calculations.
For taniborbactam, a population pharmacokinetic model was developed using nonlinear mixed-effects modelling (NONMEM). The analysis was performed on the natural logarithm of the concentrations using the FOCE method with INTERACTION. All mice were assumed to weigh 1kg, resulting in PK parameters corresponding to a per kg base. […] Tools used to evaluate and visualize the model were RStudio (v0.98.1049), R (v3.1.2), XPose (v4.5.3) and PsN (v4.6.0), all with the graphical interface Pirana (v2.9.0).
To determine the structural pharmacokinetic model 1-, 2- and 3-compartment models were tested. Pharmacokinetic parameters were estimated in terms of central and peripheral volume of distribution (Vc and Vp), clearance (CL), and intercompartmental clearance (Q). Addition of interindividual variability (IPV), described using an exponential eta model, was evaluated for each pharmacokinetic parameter. The covariance between values for IPV was estimated using a […] matrix. Residual variability between observed and predicted plasma concentrations was described using an additional error model for logarithmically transformed data. The minimum value of objective function (OFV) was used as a criterion for model selection. […] Model adequacy was further evaluated by using various residual plots (‘goodness-of-fit’ plots) and values of random effects in variances. In the second step relationships between pharmacokinetic parameters and potential covariates were investigated. […] Dose covariates were modelled by using an exponential model, place of infection was modelled proportionally. Criteria for the inclusion of covariates in the model were the OFV, results of graphical evaluation of the parameter-covariate relationship and the decrease in parameter variability.
Three procedures were used to validate the final model. As an internal validation method, a bootstrap resampling method was used. Bootstrap datasets (n=1000) were generated by sampling randomly from the original dataset with replacement. Parameters were estimated for each of the replicate datasets using the developed model.

K. pneumoniae 59 [3] = experiment: Checkerboard broth microdilution MIC of cefepime alone and with taniborbactam; assay type: cell-based, Klebsiella pneumoniae
Text: as §1

[4] = test system: β-lactamase–producing Enterobacterales and Pseudomonas aeruginosa; experiment: Neutropenic murine thigh infection model, all isolates together; assay type: in vivo; conditions: against Enterobacterales and AmpC-producing P. aeruginosa
Description: […]. […] […]. All dosing regimens were performed in at least two animals per dosing regimen.
At t = 0 h, 2 h after infection, two mice were humanely euthanized to determine the initial number of cfu/thigh just before treatment. All other animals were euthanized at t = 24 h unless the welfare of the animals indicated earlier termination, following animal welfare regulations. Thighs were taken and moved to a pre-cooled 10 mL plastic tube (Transport Tube, Omnilabo, NL) containing 2 mL PBS (NaCl 8.00 g/L, Na2HPO4 * 2H2O 1.44 g/L, KH2PO4 0.26 g/L, pH 7.2–7.4). Subsequently, thighs were homogenized using the Ultra-Turrax homogenizer (IKA Labortechnik, Germany). For each thigh 10-fold dilution series were prepared and 3 × 10 µL per dilution were plated (Chromagar, bioMérieux, NL). The following day, colonies were counted and the number of cfu/thigh was calculated. The drug effect was then determined as the difference between the log10cfu/thigh values at t = 24 h and t = 0 h (mean value of two mice) expressed as Δlog10cfu, i.e. positive result for growth, zero for static effect and negative for reduction of inoculum (killing).
as §2

K. pneumoniae 59 [5] = experiment: Neutropenic murine thigh infection model; assay type: in vivo, Klebsiella pneumoniae
Description: All dosing regimens were performed in at least two animals per dosing regimen.
At t = 0 h, 2 h after infection, two mice were humanely euthanized to determine the initial number of cfu/thigh just before treatment. […] Subsequently, thighs were homogenized using the Ultra-Turrax homogenizer (IKA Labortechnik, Germany). For each thigh 10-fold dilution series were prepared and 3 × 10 µL per dilution were plated (Chromagar, bioMérieux, NL). The following day, colonies were counted and the number of cfu/thigh was calculated.
Free drug concentrations were used in all calculations.

For `CO/N=C(\C(=O)N[C@@H]1C(=O)N2C(C(=O)[O-])=C(C[N+]3(C)CCCC3)CS[C@H]12)c1csc(N)n1` [cefepime, Cefepime], the “Cefepime MIC at taniborbactam 0.03 mg/L” value (E. coli 52; E. coli 52, +taniborbactam 0.03 mg/L) was 0.5 µg/mL, the “Cefepime MIC at taniborbactam 0.06 mg/L” value (E. coli 52; E. coli 52, +taniborbactam 0.06 mg/L) was 0.5 µg/mL and the “Cefepime MIC at taniborbactam 0.125 mg/L” value (E. coli 52; E. coli 52, +taniborbactam 0.125 mg/L) was 0.25 µg/mL. For the same compound, the “Cefepime MIC at taniborbactam 0.25 mg/L” value (E. coli 52; E. coli 52, +taniborbactam 0.25 mg/L) was 0.125 µg/mL, the “Cefepime MIC at taniborbactam 0.5 mg/L” value (E. coli 52; E. coli 52, +taniborbactam 0.5 mg/L) was 0.06 µg/mL and the “Cefepime MIC at taniborbactam 1 mg/L” value (E. coli 52; E. coli 52, +taniborbactam 1 mg/L) was 0.125 µg/mL. The “Cefepime MIC at taniborbactam 2 mg/L” value (E. coli 52; E. coli 52, +taniborbactam 2 mg/L) was 0.06 µg/mL, the “Cefepime MIC at taniborbactam 4 mg/L (potMIC)” value (E. coli 52; E. coli 52, +taniborbactam 4 mg/L) was 0.06 µg/mL and the MIC (E. coli 52; Escherichia coli, 52, read-out: Cefepime MIC (mg/L) alone) was 32 mg/L. The fraction unbound [1] was 0.8, the “absorbance rate Ka” value [2] was 15 h⁻¹ and the “Cefepime MIC at taniborbactam 0.03 mg/L” value (K. pneumoniae 59 [3]; K. pneumoniae 59, +taniborbactam 0.03 mg/L) was 64 µg/mL. For the same compound, the “Cefepime MIC at taniborbactam 0.06 mg/L” value (K. pneumoniae 59 [3]; K. pneumoniae 59, +taniborbactam 0.06 mg/L) was 32 µg/mL, the “Cefepime MIC at taniborbactam 0.125 mg/L” value (K. pneumoniae 59 [3]; K. pneumoniae 59, +taniborbactam 0.125 mg/L) was 8 µg/mL and the “Cefepime MIC at taniborbactam 0.25 mg/L” value (K. pneumoniae 59 [3]; K. pneumoniae 59, +taniborbactam 0.25 mg/L) was 2 µg/mL. For the same compound, the “Cefepime MIC at taniborbactam 0.5 mg/L” value (K. pneumoniae 59 [3]; K. pneumoniae 59, +taniborbactam 0.5 mg/L) was 1 µg/mL, the “Cefepime MIC at taniborbactam 1 mg/L” value (K. pneumoniae 59 [3]; K. pneumoniae 59, +taniborbactam 1 mg/L) was 1 µg/mL and the “Cefepime MIC at taniborbactam 2 mg/L” value (K. pneumoniae 59 [3]; K. pneumoniae 59, +taniborbactam 2 mg/L) was 1 µg/mL. The “Cefepime MIC at taniborbactam 4 mg/L (potMIC)” value (K. pneumoniae 59 [3]; K. pneumoniae 59, +taniborbactam 4 mg/L) was 0.5 µg/mL, the MIC (K. pneumoniae 59 [3]; Klebsiella pneumoniae, 59, read-out: Cefepime MIC (mg/L) alone) was 256 mg/L and the “Effect of cefepime alone” value [4] was “marginally reached stasis”. The “Stasis: q2h dose” value (K. pneumoniae 59 [5]; cefepime monotherapy) was 117.8 mg/kg, the “Stasis: %ƒT > MIC” value (K. pneumoniae 59 [5]; cefepime monotherapy q2h) was 0.0% and the “1 log10 kill: %ƒT > MIC” value (K. pneumoniae 59 [5]; cefepime monotherapy q2h, belongs to extrapolated dose) was 15.9%. For the same compound, the “1 log10 kill: Total daily dose, mg/kg” value (K. pneumoniae 59 [5]; cefepime monotherapy q2h, extrapolated) was “(4371.3) mg/kg”, the “Stasis: Total daily dose” value (K. pneumoniae 59 [5]; cefepime monotherapy q2h s.c. 24 h) was 1413.4 mg/kg and the “1 log10 kill: q2h dose, mg/kg” value (K. pneumoniae 59 [5]; cefepime monotherapy, extrapolated) was “(364.0) mg/kg”. The “Cefepime %fT > potMIC” value (K. pneumoniae 59 [5]; cefepime q2h 4 mg/kg, potMIC 0.5 mg/L (with 4 mg/L taniborbactam)) was 69.30%.
